Experimental data: US6737383B1, “Herbicidal oxadiazolidines” (priority 1999, dated 2004)

Columns and labels:
morningglory = assay: Test B pre/postemergence morningglory; type: in vivo, Ipomoea hederacea
Summary of the method: (§1)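 Response is a visual 0-to-10 score relative to untreated plants, where 0 means no effect and 10 means complete control, taken twelve to sixteen days after application. Treatments went onto soil at planting and onto foliage of 1- to 4-leaf plants, using a surfactant-containing non-phytotoxic solvent.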

blackgrass = assay: Test B pre/postemergence blackgrass; type: in vivo, Alopecurus myosuroides
Summary of the method: as §1

bedstraw = assay: Test B pre/postemergence bedstraw; type: in vivo, Galium aparine
Summary of the method: as §1

pigweed = assay: Test B pre/postemergence pigweed; type: in vivo, Amaranthus retroflexus
Summary of the method: as §1

smallflower flatsedge = assay: Test B flood test smallflower flatsedge; type: in vivo, Cyperus difformis
Summary of the method: (§2)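 Read-out is a visual response score from 0 (no effect) to 10 (complete control), assigned by comparison with untreated controls. Treatment was applied at the 2-leaf stage, and plants stayed in the greenhouse for twelve to sixteen days before scoring.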

wild oat = assay: Test B pre/postemergence wild oat; type: in vivo, Avena fatua
Summary of the method: as §1

rape = assay: Test B pre/postemergence rape; type: in vivo, Brassica napus
Summary of the method: as §1

purple nutsedge = assay: Test B pre/postemergence purple nutsedge; type: in vivo, Cyperus rotundus; details: Postemergence; for Nutsedge plant response rating: 10 is complete control
Summary of the method: as §1

wheat = assay: Test B pre/postemergence wheat; type: in vivo, Triticum aestivum
Summary of the method: as §1

sugar beet = assay: Test B pre/postemergence sugar beet; type: in vivo, Beta vulgaris
Summary of the method: as §1

cocklebur = assay: Test B pre/postemergence cocklebur; type: in vivo, Xanthium strumarium
Summary of the method: as §1

soybean = assay: Test B pre/postemergence soybean; type: in vivo, Glycine max
Summary of the method: as §1

surinam grass = assay: Test B pre/postemergence surinam grass; type: in vivo, Brachiaria decumbens
Summary of the method: as §1

duck salad = assay: Test B flood test duck salad; type: in vivo, Heteranthera limosa
Summary of the method: as §2

giant foxtail = assay: Test B pre/postemergence giant foxtail; type: in vivo, Setaria faberii
Summary of the method: as §1

bamyardgrass = assay: Test B flood test barnyardgrass; type: in vivo, Echinochloa crus-galli
Summary of the method: as §2

[1] = Postemergence, Rate 62 g/ha, scale of 0 to 10, 0 is no effect, 10 is complete control
[2] = Postemergence, Rate 125 g/ha, scale 0 to 10, 0 is no effect, 10 is complete control
[3] = Postemergence, Rate 500 g/ha, scale of 0 to 10 where 0 is no effect and 10 is complete control
[4] = Preemergence, Rate 62 g/ha, scale 0 to 10 (0 no effect, 10 complete control)
[5] = Preemergence, Rate 125 g/ha, scale 0 to 10, 0 is no effect, 10 is complete control
[6] = Preemergence, Rate 500 g/ha, scale of 0 to 10 where 0 is no effect and 10 is complete control
[7] = Rate 250 g/ha, Postemergence, scale of 0 to 10 where 0 is no effect and 10 is complete control
[8] = Rate 62 g/ha, flood test species, Pre-emergence, visual evaluation after twelve to sixteen days
[9] = Rate 125 g/ha, under heading Pre-emergence, flood test species, visual evaluation after twelve to sixteen days
[10] = Rate 250 g/ha, Pre-emergence (flood test species), scale 0 to 10, 0 is no effect, 10 is complete control
[11] = Rate 500 g/ha, Pre-emergence section of Table B, 0 to 10 scale (0 no effect, 10 complete control)

In the case of `CC(C)N(C(=O)n1oc(=O)n(CCC2OCCCO2)c1=O)c1ccccc1` [Compound 561], the “Morningglory plant response rating” value (morningglory; [1]) was 1, the “Morningglory plant response rating” value (morningglory; [2]) was 4 and the “Plant response rating, Morningglory” value (morningglory; [3]) was 9. For the same compound, the “Morningglory plant response rating” value (morningglory; [4]) was 0, the “Morningglory plant response rating” value (morningglory; [5]) was 0 and the “Morningglory plant response rating (0 to 10 scale)” value (morningglory; Preemergence, Rate 250 g/ha) was 2. The “Morningglory plant response rating” value (morningglory; [6]) was 4, the “Plant response rating, Morningglory” value (morningglory; [7]) was 5 and the “Blackgrass plant response rating” value (blackgrass; [1]) was 2. The “Blackgrass plant response rating” value (blackgrass; [2]) was 5, the “Plant response rating, Blackgrass” value (blackgrass; [3]) was 6 and the “Blackgrass plant response rating” value (blackgrass; [4]) was 5. For the same compound, the “Blackgrass plant response rating” value (blackgrass; [5]) was 7, the “Blackgrass plant response rating (0 to 10 scale)” value (blackgrass; Preemergence, Rate 250 g/ha) was 9 and the “Blackgrass plant response rating” value (blackgrass; [6]) was 9. For the same compound, the “Plant response rating, Blackgrass” value (blackgrass; [7]) was 6, the “Bedstraw plant response rating” value (bedstraw; [1]) was 0 and the “Plant response rating, Bedstraw” value (bedstraw; [3]) was 7. The “Bedstraw plant response rating” value (bedstraw; [4]) was 0, the “Bedstraw plant response rating” value (bedstraw; [5]) was 0 and the “Bedstraw plant response rating (0 to 10 scale)” value (bedstraw; Preemergence, Rate 250 g/ha) was 2. The “Bedstraw plant response rating” value (bedstraw; [6]) was 8, the “Redroot pigweed plant response rating” value (pigweed; [1]) was 0 and the “Plant response rating, Redroot pigweed” value (pigweed; [3]) was 7. For the same compound, the “Redroot pigweed plant response rating” value (pigweed; [4]) was 3, the “Redroot pigweed plant response rating” value (pigweed; [5]) was 5 and the “Redroot pigweed plant response rating (0 to 10 scale)” value (pigweed; Preemergence, Rate 250 g/ha) was 9. For the same compound, the “Redroot pigweed plant response rating” value (pigweed; [6]) was 9, the “Plant response rating, Redroot pigweed” value (pigweed; [7]) was 0 and the “Plant response rating, S. Flatsedge (0 to 10 scale, 0 is no effect, 10 is complete control)” value (smallflower flatsedge; [8]) was 0. The “S. Flatsedge plant response rating (0 to 10 scale, 0 is no effect, 10 is complete control)” value (smallflower flatsedge; [9]) was 0, the “S. Flatsedge plant response rating” value (smallflower flatsedge; [10]) was 0 and the “S. Flatsedge plant response rating” value (smallflower flatsedge; [11]) was 0. The “Wild oats plant response rating” value (wild oat; [1]) was 0, the “Plant response rating, Wild oats” value (wild oat; [3]) was 2 and the “Wild oats plant response rating” value (wild oat; [4]) was 0. The “Wild oats plant response rating” value (wild oat; [5]) was 2, the “Wild oats plant response rating (0 to 10 scale)” value (wild oat; Preemergence, Rate 250 g/ha) was 5 and the “Wild oats plant response rating” value (wild oat; [6]) was 9. The “Plant response rating, Wild oats” value (wild oat; [7]) was 2, the “Rape plant response rating” value (rape; [1]) was 4 and the “Rape plant response rating” value (rape; [2]) was 4. The “Plant response rating, Rape” value (rape; [3]) was 4, the “Rape plant response rating” value (rape; [4]) was 2 and the “Rape plant response rating” value (rape; [5]) was 2. The “Rape plant response rating (0 to 10 scale)” value (rape; Preemergence, Rate 250 g/ha) was 5, the “Rape plant response rating” value (rape; [6]) was 9 and the “Plant response rating, Rape” value (rape; [7]) was 4. The “Nutsedge plant response rating” value (purple nutsedge; Rate 62 g/ha, scale of 0 to 10, 0 is no effect) was 0, the “Nutsedge plant response rating” value (purple nutsedge; Rate 125 g/ha, scale 0 to 10, 0 is no effect) was 2 and the “Plant response rating, Nutsedge” value (purple nutsedge; Rate 500 g/ha, scale of 0 to 10 where 0 is no effect and 10 is complete control) was 4. For the same compound, the “Wheat plant response rating” value (wheat; [1]) was 0, the “Plant response rating, Wheat” value (wheat; [3]) was 7 and the “Wheat plant response rating” value (wheat; [4]) was 0. The “Wheat plant response rating” value (wheat; [5]) was 4, the “Wheat plant response rating (0 to 10 scale)” value (wheat; Preemergence, Rate 250 g/ha) was 6 and the “Wheat plant response rating” value (wheat; [6]) was 9. The “Plant response rating, Wheat” value (wheat; [7]) was 3, the “Sugarbeets plant response rating” value (sugar beet; [1]) was 0 and the “Plant response rating, Sugarbeets” value (sugar beet; [3]) was 4. The “Sugarbeets plant response rating” value (sugar beet; [4]) was 0, the “Sugarbeets plant response rating” value (sugar beet; [5]) was 0 and the “Sugarbeets plant response rating (0 to 10 scale)” value (sugar beet; Preemergence, Rate 250 g/ha) was 2. For the same compound, the “Sugarbeets plant response rating” value (sugar beet; [6]) was 8, the “Cocklebur plant response rating” value (cocklebur; [1]) was 0 and the “Cocklebur plant response rating” value (cocklebur; [2]) was 0. The “Plant response rating, Cocklebur” value (cocklebur; [3]) was 0, the “Cocklebur plant response rating” value (cocklebur; [4]) was 0 and the “Cocklebur plant response rating” value (cocklebur; [5]) was 0. The “Cocklebur plant response rating (0 to 10 scale)” value (cocklebur; Preemergence, Rate 250 g/ha) was 0, the “Cocklebur plant response rating” value (cocklebur; [6]) was 0 and the “Plant response rating, Cocklebur” value (cocklebur; [7]) was 0. For the same compound, the “Soybean plant response rating” value (soybean; [1]) was 2, the “Plant response rating, Soybean” value (soybean; [3]) was 5 and the “Soybean plant response rating” value (soybean; [4]) was 0. For the same compound, the “Soybean plant response rating” value (soybean; [5]) was 0, the “Soybean plant response rating (0 to 10 scale)” value (soybean; Preemergence, Rate 250 g/ha) was 0 and the “Soybean plant response rating” value (soybean; [6]) was 2. The “Plant response rating, Soybean” value (soybean; [7]) was 3, the “B. signalgrass plant response rating” value (surinam grass; [1]) was 0 and the “B. signalgrass plant response rating” value (surinam grass; [2]) was 0. For the same compound, the “Plant response rating, B. signalgrass” value (surinam grass; [3]) was 8, the “B. signalgrass plant response rating” value (surinam grass; [4]) was 4 and the “B. signalgrass plant response rating” value (surinam grass; [5]) was 4. For the same compound, the “B. signalgrass plant response rating (0 to 10 scale, 0 is no effect, 10 is complete control)” value (surinam grass; Preemergence, Rate 250 g/ha) was 8, the “B. signalgrass plant response rating” value (surinam grass; [6]) was 9 and the “Plant response rating, B. signalgrass” value (surinam grass; [7]) was 6. For the same compound, the “Plant response rating, Ducksalad (0 to 10 scale, 0 is no effect, 10 is complete control)” value (duck salad; [8]) was 0, the “Ducksalad plant response rating (0 to 10 scale, 0 is no effect, 10 is complete control)” value (duck salad; [9]) was 0 and the “Ducksalad plant response rating” value (duck salad; [10]) was 0. For the same compound, the “Ducksalad plant response rating” value (duck salad; [11]) was 0, the “Giant foxtail plant response rating” value (giant foxtail; [1]) was 2 and the “Giant foxtail plant response rating” value (giant foxtail; [2]) was 4. The “Plant response rating, Giant foxtail” value (giant foxtail; [3]) was 8, the “Giant foxtail plant response rating” value (giant foxtail; [4]) was 0 and the “Giant foxtail plant response rating” value (giant foxtail; [5]) was 6. The “Giant foxtail plant response rating (0 to 10 scale)” value (giant foxtail; Preemergence, Rate 250 g/ha) was 6, the “Giant foxtail plant response rating” value (giant foxtail; [6]) was 7 and the “Plant response rating, Giant foxtail” value (giant foxtail; [7]) was 7. For the same compound, the “Plant response rating, Barnyardgrass (0 to 10 scale, 0 is no effect, 10 is complete control)” value (bamyardgrass; [8]) was 0, the “Barnyardgrass plant response rating (0 to 10 scale, 0 is no effect, 10 is complete control)” value (bamyardgrass; [9]) was 0 and the “Barnyardgrass plant response rating” value (bamyardgrass; [10]) was 0. For the same compound, the “Barnyardgrass plant response rating” value (bamyardgrass; [11]) was 0.
